Reference: the CheMixHub ionic liquid set

Experiment: xn = mol fraction of the nth substance listed

CCCC[n+]1ccn(C)c1.O=S(=O)([N-]S(=O)(=O)C(F)(F)F)C(F)(F)F + CC(=O)[O-].CCCC[NH2+]CCO
101 kPa, x2 = 0
Conditions | viscosity [mPa·s]
278.15 K | 145.6
288.15 K | 83.44
293.15 K | 65.11
318.15 K | 24.05

CCCC[n+]1ccn(C)c1.O=S(=O)([N-]S(=O)(=O)C(F)(F)F)C(F)(F)F + CC(=O)[O-].CCCC[n+]1ccn(C)c1
101 kPa
Conditions | electrical conductivity, 313.15 K [S/m] | viscosity, 298.15 K [mPa·s] | viscosity, 313.15 K [mPa·s] | viscosity, 353.15 K [mPa·s]
x1 = 1 | 0.683 | – | 28.5 | –
x2 = 0 | – | 50.3 | – | 9.52

CC1CNCCN1 (stereo not given) + CC(=O)[O-].CCCC[n+]1ccn(C)c1 + O
viscosity [mPa·s], 100 kPa
Conditions | 298.15 K | 303.15 K | 308.15 K | 313.15 K | 318.15 K | 323.15 K | 328.15 K | 333.15 K
x2 = 0.04327, x1 = 0.02647 | 3.46 | 3.23 | 2.82 | 2.64 | 2.39 | 1.91 | 1.31 | 1.16
x2 = 0.05132, x1 = 0.01784 | 3.58 | 3.38 | 3.16 | 3.02 | 2.84 | 2.52 | 2.47 | 1.83
x2 = 0.05944, x1 = 0.009089 | 4.03 | 3.78 | 3.72 | 3.24 | 3.11 | 2.89 | 2.54 | 2.03

Nc1ncnc2[nH]cnc12 + CC(=O)[O-].CC[n+]1ccn(C)c1
Conditions | viscosity [mPa·s]
298.15 K, 100 kPa, x1 = 0.2012 | 960

CCCC[n+]1ccn(C)c1.F[P-](F)(F)(F)(F)F + CC(=O)c1ccccc1
Conditions | viscosity [mPa·s]
313.15 K, 100 kPa, x2 = 0 | 97

CCCC[n+]1ccn(C)c1.F[P-](F)(F)(F)(F)F + CC(C)=O
Conditions | electrical conductivity [S/m] | viscosity [mPa·s]
296.15 K, 101 kPa, x2 = 0 | 0.15 | –
296.15 K, 101 kPa, x2 = 0.9195 | 3.84 | –
298.15 K, 101 kPa, x2 = 0.4972 | 1.28 | 14.7
298.15 K, 101 kPa, x2 = 0.7839 | 2.86 | 2.05
298.15 K, 101.3 kPa, x2 = 0.4485 | – | 18.46
298.15 K, 101.3 kPa, x2 = 0.6007 | – | 6.96
298.15 K, 101.3 kPa, x2 = 0.8058 | – | 1.648

CCCCCC[N+](CC)(CC)CC.O=S(=O)([N-]S(=O)(=O)C(F)(F)F)C(F)(F)F + CC(C)O
100 kPa
Conditions | viscosity [mPa·s]
293.15 K, x2 = 0.096 | 160
298.15 K, x2 = 0.2045 | 95.8
298.15 K, x2 = 0.3101 | 68.4
298.15 K, x2 = 0.4987 | 35.9
303.15 K, x2 = 0.3101 | 61.4
308.15 K, x2 = 0.4056 | 35.1
308.15 K, x2 = 0.4987 | 25.5
308.15 K, x2 = 0.5916 | 18
308.15 K, x2 = 0.8015 | 5.65
308.15 K, x2 = 0.9193 | 2.98
313.15 K, x2 = 0.096 | 69.9
313.15 K, x2 = 0.5916 | 16

CCCC[n+]1cccc(C)c1.O=S(=O)([N-]S(=O)(=O)C(F)(F)F)C(F)(F)F + CC(C)O
Conditions | electrical conductivity [S/m]
298.15 K, 101.3 kPa, x2 = 0.3381 | 0.642

CC[n+]1ccn(C)c1.O=S(=O)([O-])O + CC(C)[C@H](N)C(=O)O + O
viscosity [mPa·s], 100 kPa
Conditions | 293.15 K | 298.15 K | 303.15 K | 308.15 K | 313.15 K
x2 = 0, x1 = 0.0005421 | 1.046 | 0.929 | 0.824 | 0.75 | 0.678
x2 = 0, x1 = 0.0009056 | 1.068 | 0.949 | 0.843 | 0.759 | 0.684
x2 = 0, x1 = 0.001263 | 1.073 | 0.966 | 0.866 | 0.78 | 0.697
x2 = 0.0003674, x1 = 0.0009053 | 1.09 | 0.958 | 0.851 | 0.767 | 0.691
x2 = 0.0003913, x1 = 0.0005419 | 1.068 | 0.938 | 0.832 | 0.758 | 0.686
x2 = 0.0003924, x1 = 0.001263 | 1.096 | 0.975 | 0.875 | 0.787 | 0.705
x2 = 0.0007372, x1 = 0.001262 | 1.117 | 0.983 | 0.882 | 0.794 | 0.711
x2 = 0.000749, x1 = 0.0009049 | 1.112 | 0.966 | 0.859 | 0.774 | 0.698
x2 = 0.0007642, x1 = 0.0005417 | 1.09 | 0.947 | 0.84 | 0.765 | 0.693
x2 = 0.001083, x1 = 0.0005415 | 1.108 | 0.954 | 0.847 | 0.771 | 0.699
x2 = 0.001089, x1 = 0.0009046 | 1.132 | 0.974 | 0.866 | 0.781 | 0.704
x2 = 0.001118, x1 = 0.001262 | 1.139 | 0.992 | 0.89 | 0.802 | 0.718
x2 = 0.001457, x1 = 0.001262 | 1.159 | 1 | 0.897 | 0.808 | 0.725
x2 = 0.001475, x1 = 0.0009042 | 1.155 | 0.983 | 0.874 | 0.788 | 0.711
x2 = 0.001477, x1 = 0.0005413 | 1.131 | 0.963 | 0.855 | 0.779 | 0.706
x2 = 0.001795, x1 = 0.0005411 | 1.149 | 0.97 | 0.861 | 0.785 | 0.712
x2 = 0.001812, x1 = 0.0009039 | 1.175 | 0.991 | 0.881 | 0.795 | 0.717
x2 = 0.001817, x1 = 0.001261 | 1.18 | 1.008 | 0.905 | 0.816 | 0.731
x2 = 0.002249, x1 = 0.0005409 | 1.176 | 0.98 | 0.871 | 0.794 | 0.721
x2 = 0.002256, x1 = 0.001261 | 1.206 | 1.018 | 0.915 | 0.824 | 0.739
x2 = 0.002283, x1 = 0.0009035 | 1.203 | 1.001 | 0.891 | 0.804 | 0.726

CC(CC(C)(C)C)CP(=O)([O-])CC(C)CC(C)(C)C.CCCCCCCCCCCCCC[P+](CCCCCC)(CCCCCC)CCCCCC + CCC(=O)O + O
298.15 K, 100 kPa
Conditions | viscosity [mPa·s]
x2 = 0.02049, x1 = 0.1002 | 133
x2 = 0.02069, x1 = 0.09762 | 145
x2 = 0.04451, x1 = 0.115 | 139
x2 = 0.231, x1 = 0.1669 | 147
x2 = 0.3019, x1 = 0.1781 | 150
x2 = 0.3925, x1 = 0.1645 | 145
x2 = 0.4515, x1 = 0.1697 | 133
x2 = 0.4652, x1 = 0.1675 | 127
x2 = 0.4969, x1 = 0.154 | 133
x2 = 0.5235, x1 = 0.1181 | 81
x2 = 0.5255, x1 = 0.1239 | 85
x2 = 0.5271, x1 = 0.1398 | 114
x2 = 0.5377, x1 = 0.108 | 60
x2 = 0.571, x1 = 0.09705 | 52
